Results published in patent US10793564B2, “Amino acid compounds and methods of use” (Pliant Therapeutics, Inc., priority 2018, dated 2020).

Target: recombinant human integrin αVβ6 (Homo sapiens (Human), UniProt P06756+P18564)
Assay: Solid phase integrin αVβ6 binding assay
Details: inhibition of recombinant TGFβ1 LAP binding to coated integrin, IC50 presented in four ranges, read-out: αvβ6 Inhibition IC50 (nM) - range
Experimental: (§1) Microplates were coated with recombinant human integrin αVβ6 (2 μg/mL) in PBS (100 μL/well 25° C., overnight). The coating solution was removed, washed with wash buffer (0.05% Tween 20; 0.5 mM MnCl2; in 1×TBS). The plate was blocked with 200 μL/well of Block Buffer (1% BSA; 5% sucrose; 0.5 mM MnCl2; in 1×TBS) at 37° C. for 2 h. Dilutions of testing compounds and recombinant TGFβ1 LAP (0.67 μg/mL) in binding buffer (0.05% BSA; 2.5% sucrose; 0.5 mM MnCl2; in 1×TBS) were added. The plate was incubated for 2 hours at 25° C., washed, and incubated for 1 hour with Biotin-Anti-hLAP. Bound antibody was detected by peroxidase-conjugated streptavidin. The IC50 values for testing compounds were calculated by a four-parameter logistic regression.
The compounds tested were compound samples prepared according to procedures described in the Synthetic Examples section, with the stereochemical purity as indicated in the Examples.
as §1, with “A third series of exemplary compounds was selected for testing in the solid phase integrin αVβ6 binding assay. The compounds tested were compound samples prepared according to procedures described in the Synthetic Examples section, with the stereochemical purity as indicated in the Examples. As in Example B1, microplates were” for “Microplates were”, “(0.67 g/mL)” for “(0.67 μg/mL)”

Sequence of recombinant human integrin αVβ6 (P06756 31-992): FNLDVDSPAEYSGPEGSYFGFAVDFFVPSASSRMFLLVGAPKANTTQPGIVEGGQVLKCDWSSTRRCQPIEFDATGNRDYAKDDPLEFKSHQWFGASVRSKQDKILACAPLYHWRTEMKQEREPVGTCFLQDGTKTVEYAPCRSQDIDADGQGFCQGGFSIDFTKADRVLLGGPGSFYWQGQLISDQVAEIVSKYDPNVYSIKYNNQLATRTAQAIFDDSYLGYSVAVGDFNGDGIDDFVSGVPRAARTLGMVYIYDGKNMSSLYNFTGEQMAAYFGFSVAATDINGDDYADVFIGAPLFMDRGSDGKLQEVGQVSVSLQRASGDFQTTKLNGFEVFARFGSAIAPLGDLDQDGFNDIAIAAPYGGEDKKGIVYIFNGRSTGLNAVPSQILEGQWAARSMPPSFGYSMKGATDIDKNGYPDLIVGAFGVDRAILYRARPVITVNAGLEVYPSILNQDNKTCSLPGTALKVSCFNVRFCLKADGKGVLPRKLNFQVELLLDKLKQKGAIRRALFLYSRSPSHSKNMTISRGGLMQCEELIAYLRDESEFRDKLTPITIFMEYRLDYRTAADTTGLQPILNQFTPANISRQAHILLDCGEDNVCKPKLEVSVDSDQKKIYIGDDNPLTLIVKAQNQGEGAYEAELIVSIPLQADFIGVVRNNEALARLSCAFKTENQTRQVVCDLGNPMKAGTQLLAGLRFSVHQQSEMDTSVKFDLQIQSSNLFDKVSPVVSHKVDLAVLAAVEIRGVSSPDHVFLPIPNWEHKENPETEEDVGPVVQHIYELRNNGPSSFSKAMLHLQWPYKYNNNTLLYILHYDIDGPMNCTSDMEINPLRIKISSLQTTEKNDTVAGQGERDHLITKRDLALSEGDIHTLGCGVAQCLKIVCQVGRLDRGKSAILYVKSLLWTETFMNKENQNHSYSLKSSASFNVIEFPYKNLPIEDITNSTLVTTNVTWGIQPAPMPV
Sequence of recombinant human integrin αVβ6 (P18564 22-707): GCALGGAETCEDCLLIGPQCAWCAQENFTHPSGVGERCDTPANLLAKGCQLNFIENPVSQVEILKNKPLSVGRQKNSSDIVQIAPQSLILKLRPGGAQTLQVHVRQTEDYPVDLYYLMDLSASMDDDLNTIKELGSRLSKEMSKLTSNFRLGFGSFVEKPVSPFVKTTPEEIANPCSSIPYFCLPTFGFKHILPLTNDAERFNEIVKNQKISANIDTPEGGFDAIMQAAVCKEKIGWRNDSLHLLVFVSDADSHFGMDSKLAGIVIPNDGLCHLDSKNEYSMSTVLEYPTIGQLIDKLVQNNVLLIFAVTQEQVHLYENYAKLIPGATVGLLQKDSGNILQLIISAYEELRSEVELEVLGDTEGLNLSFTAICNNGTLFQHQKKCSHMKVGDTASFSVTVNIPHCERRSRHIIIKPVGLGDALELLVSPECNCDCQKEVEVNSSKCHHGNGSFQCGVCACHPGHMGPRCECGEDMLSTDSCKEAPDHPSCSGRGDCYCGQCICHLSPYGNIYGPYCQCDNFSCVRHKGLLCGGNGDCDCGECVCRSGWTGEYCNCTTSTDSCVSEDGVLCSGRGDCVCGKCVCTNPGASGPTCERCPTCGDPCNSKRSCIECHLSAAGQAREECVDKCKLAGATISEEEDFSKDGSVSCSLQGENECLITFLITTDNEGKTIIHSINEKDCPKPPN

IC50, < 50 nM:
Cc1nc(N[C@@H](CCN(CCCCc2ccc3c(n2)NCCC3)CCOc2cccnc2C)C(=O)O)c2ccc(F)cc2n1 [Compound 53, (S)-2-((7-fluoro-2-methylquinazolin-4-yl)amino)-4-((2-((2-methylpyridin-3-yl)oxy)ethyl) (4-(5,6,7,8-tetrahydro-1,8-naphthyridin-2-yl)butyl)amino) butanoic Acid]
Cc1ncccc1OCCN(CCCCc1ccc2c(n1)NCCC2)CC[C@H](Nc1ncnc2cccnc12)C(=O)O [Compound 54, (S)-4-((2-((2-methylpyridin-3-yl)oxy)ethyl) (4-(5,6,7,8-tetrahydro-1,8-naphthyridin-2-yl)butyl)amino)-2-(pyrido[3,2-d]pyrimidin-4-ylamino) butanoic Acid]
CCOCCN(CCCCc1ccc2c(n1)NCCC2)CC[C@H](Nc1ncnc2ccccc12)C(=O)O [Compound 55, (S)-4-((2-ethoxyethyl) (4-(5,6,7,8-tetrahydro-1,8-naphthyridin-2-yl)butyl)amino)-2-(quinazolin-4-ylamino) butanoic Acid]
Cc1ccc(OCCN(CCCCc2ccc3c(n2)NCCC3)CC[C@H](Nc2nc(C)nc3cc(F)ccc23)C(=O)O)cn1 [Compound 56, (S)-2-((7-fluoro-2-methylquinazolin-4-yl)amino)-4-((2-((6-methylpyridin-3-yl)oxy)ethyl) (4-(5,6,7,8-tetrahydro-1,8-naphthyridin-2-yl)butyl)amino) butanoic Acid]
Cc1ccc(OCCN(CCCCc2ccc3c(n2)NCCC3)CC[C@H](Nc2ncnc3cccnc23)C(=O)O)cn1 [Compound 57, (S)-4-((2-((6-methylpyridin-3-yl)oxy)ethyl) (4-(5,6,7,8-tetrahydro-1,8-naphthyridin-2-yl)butyl)amino)-2-(pyrido[3,2-d]pyrimidin-4-ylamino) butanoic Acid]
O=C(O)[C@H](CCN(CCCCc1ccc2c(n1)NCCC2)CCOc1cncc(F)c1)Nc1ncnc2ccccc12 [Compound 58, (S)-4-((2-((5-fluoropyridin-3-yl)oxy)ethyl) (4-(5,6,7,8-tetrahydro-1,8-naphthyridin-2-yl)butyl)amino)-2-(quinazolin-4-ylamino) butanoic Acid]
Cc1ccc(OCCN(CCCCc2ccc3c(n2)NCCC3)CC[C@H](Nc2ncnc3ccccc23)C(=O)O)cn1 [Compound 59, (S)-4-((2-((6-methylpyridin-3-yl)oxy)ethyl) (4-(5,6,7,8-tetrahydro-1,8-naphthyridin-2-yl)butyl)amino)-2-(quinazolin-4-ylamino) butanoic Acid]
O=C(O)[C@H](CCN(CCCCc1ccc2c(n1)NCCC2)CCOc1cncc(F)c1)Nc1ncnc2cccnc12 [Compound 60, (S)-4-((2-((5-fluoropyridin-3-yl)oxy)ethyl) (4-(5,6,7,8-tetrahydro-1,8-naphthyridin-2-yl)butyl)amino)-2-(pyrido[3,2-d]pyrimidin-4-ylamino) butanoic Acid]
Cc1nc(N[C@@H](CCN(CCCCc2ccc3c(n2)NCCC3)CCOc2cncc(F)c2)C(=O)O)c2ccc(F)cc2n1 [Compound 61, (S)-2-((7-fluoro-2-methylquinazolin-4-yl)amino)-4-((2-((5-fluoropyridin-3-yl)oxy)ethyl) (4-(5,6,7,8-tetrahydro-1,8-naphthyridin-2-yl)butyl)amino) butanoic Acid]
CO[C@H](C)CN(CCCCc1ccc2c(n1)NCCC2)CC[C@H](Nc1ncnc2ccccc12)C(=O)O [Compound 62, (S)-4-(((R)-2-methoxypropyl) (4-(5,6,7,8-tetrahydro-1,8-naphthyridin-2-yl)butyl)amino)-2-(quinazolin-4-ylamino) butanoic Acid]
CC(=O)NCCN(CCCCc1ccc2c(n1)NCCC2)CC[C@H](Nc1ncnc2ccccc12)C(=O)O [Compound 63, (S)-4-((2-acetamidoethyl) (4-(5,6,7,8-tetrahydro-1,8-naphthyridin-2-yl)butyl)amino)-2-(quinazolin-4-ylamino) butanoic Acid]
CN(C)C(=O)CN(CCCCc1ccc2c(n1)NCCC2)CC[C@H](Nc1ncnc2ccccc12)C(=O)O [Compound 64, (S)-4-((2-(dimethylamino)-2-oxoethyl) (4-(5,6,7,8-tetrahydro-1,8-naphthyridin-2-yl)butyl)amino)-2-(quinazolin-4-ylamino) butanoic Acid]
CO[C@H](C)CN(CCCCc1ccc2c(n1)NCCC2)CC[C@H](Nc1nc(C)nc2cc(F)ccc12)C(=O)O [Compound 65, (S)-2-((7-fluoro-2-methylquinazolin-4-yl)amino)-4-(((R)-2-methoxypropyl) (4-(5,6,7,8-tetrahydro-1,8-naphthyridin-2-yl)butyl)amino) butanoic Acid]
CO[C@H](C)CN(CCCCc1ccc2c(n1)NCCC2)CC[C@H](Nc1nc(C)nc2ccccc12)C(=O)O [Compound 66, (S)-4-(((R)-2-methoxypropyl) (4-(5,6,7,8-tetrahydro-1,8-naphthyridin-2-yl)butyl)amino)-2-((2-methylquinazolin-4-yl)amino) butanoic Acid]
COCCN(CCCCc1ccc2c(n1)NCCC2)CC[C@H](Nc1nccnc1C#N)C(=O)O [Compound 67, (S)-2-((3-cyanopyrazin-2-yl)amino)-4-((2-methoxyethyl) (4-(5,6,7,8-tetrahydro-1,8-naphthyridin-2-yl)butyl)amino) butanoic Acid]
CO[C@H](C)CN(CCCCc1ccc2c(n1)NCCC2)CC[C@H](Nc1ncc(C#N)cn1)C(=O)O [Compound 68, (S)-2-((5-cyanopyrimidin-2-yl)amino)-4-(((R)-2-methoxypropyl) (4-(5,6,7,8-tetrahydro-1,8-naphthyridin-2-yl)butyl)amino) butanoic Acid]
CO[C@H](C)CN(CCCCc1ccc2c(n1)NCCC2)CC[C@H](Nc1ncc(C(F)(F)F)cn1)C(=O)O [Compound 69, (S)-4-(((R)-2-methoxypropyl) (4-(5,6,7,8-tetrahydro-1,8-naphthyridin-2-yl)butyl)amino)-2-((5-(trifluoromethyl)pyrimidin-2-yl)amino) butanoic Acid]
CO[C@H](C)CN(CCCCc1ccc2c(n1)NCCC2)CC[C@H](Nc1ncc(Br)cn1)C(=O)O [Compound 70, (S)-2-((5-bromopyrimidin-2-yl)amino)-4-(((R)-2-methoxypropyl) (4-(5,6,7,8-tetrahydro-1,8-naphthyridin-2-yl)butyl)amino) butanoic Acid]
CO[C@H](C)CN(CCCCc1ccc2c(n1)NCCC2)CC[C@H](Nc1ncnc2[nH]ncc12)C(=O)O [Compound 71, (S)-2-((1H-pyrazolo[3,4-d]pyrimidin-4-yl)amino)-4-(((R)-2-methoxypropyl) (4-(5,6,7,8-tetrahydro-1,8-naphthyridin-2-yl)butyl)amino) butanoic Acid]
CO[C@H](C)CN(CCCCc1ccc2c(n1)NCCC2)CC[C@H](Nc1ccnc(C(F)(F)F)n1)C(=O)O [Compound 72, (S)-4-(((R)-2-methoxypropyl) (4-(5,6,7,8-tetrahydro-1,8-naphthyridin-2-yl)butyl)amino)-2-((2-(trifluoromethyl)pyrimidin-4-yl)amino) butanoic Acid]
CO[C@H](C)CN(CCCCc1ccc2c(n1)NCCC2)CC[C@H](Nc1ccnc(-c2ccccc2)n1)C(=O)O [Compound 73, (S)-4-(((R)-2-methoxypropyl) (4-(5,6,7,8-tetrahydro-1,8-naphthyridin-2-yl)butyl)amino)-2-((2-phenylpyrimidin-4-yl)amino) butanoic Acid]
CO[C@H](C)CN(CCCCc1ccc2c(n1)NCCC2)CC[C@H](Nc1ncnc2c1cnn2C)C(=O)O [Compound 74, (S)-4-(((R)-2-methoxypropyl) (4-(5,6,7,8-tetrahydro-1,8-naphthyridin-2-yl)butyl)amino)-2-((1-methyl-1H-pyrazolo[3,4-d]pyrimidin-4-yl)amino) butanoic Acid]
O=C(O)[C@H](CCN(CCO)CCCCc1ccc2c(n1)NCCC2)Nc1ncnc2ccccc12 [Compound 75, (S)-4-((2-hydroxyethyl) (4-(5,6,7,8-tetrahydro-1,8-naphthyridin-2-yl)butyl)amino)-2-(quinazolin-4-ylamino) butanoic Acid]
CO[C@H](C)CN(CCCCc1ccc2c(n1)NCCC2)CC[C@H](Nc1nccnc1C#N)C(=O)O [Compound 76, (S)-2-((3-cyanopyrazin-2-yl)amino)-4-(((R)-2-methoxypropyl) (4-(5,6,7,8-tetrahydro-1,8-naphthyridin-2-yl)butyl)amino) butanoic Acid]
